In patent US20250136606A1, “MODULATORS OF TRPML, THEIR COMPOSITIONS AND METHODS OF USE” (Caraway Therapeutics, Inc., priority 2021, published 2025):
pEC50: −log10 of the molar value. Read-outs that look alike come from different tables or passages of the source.

Experiments:
TRPML1 = TRPML1 (Homo sapiens, UniProt Q9GZU1); assay: Fluorescent TRPML1 assay (Fluo4-AM calcium fluorescence in doxycycline-induced HEK-293 Trex cells); type: cell-based
Method: (§1) HEK-293 Trex cells were stably transfected with a construct consisting of the human coding sequence for TRPML1 cloned into the […] plasmid pCDNA5 T/O. Mutations were introduced into the TRPML1 sequence to facilitate expression on the cell surface (Silvia Vergarajauregui, Rosa Puertollano, Traffic. 2006 March; 7(3): 337-353). Briefly, the cells are cultured in 150 mm round tissue culture dishes containing 20 mL of media. The day before the assay the cells are rinsed with DPBS-Ca—Mg and then treated briefly with Trypsin-EDTA. The Trypsin-EDTA is diluted with growth media, and cells are counted. 38×10^6 cells are re-plated into 150 mm round tissue culture dishes in media containing 0.5 ug/mL doxycycline to induce expression of hTRPML1.
(§2) The day of the experiment cells are lifted from the plates as above and collected by centrifugation. The cells are then suspended in dye loading buffer consisting of Ringer's solution supplemented with 0.1% Pluronic Acid and 1 micromolar Fluo4-AM dye. Cells are loaded for ˜60 minutes in the dark with occasional mixing. The cells are collected by centrifugation, the loading media aspirated, and the cells resuspended in 25 mL Ringer's solution and incubated ˜60 minutes in the dark. The cells are again collected by centrifugation, rinsed in Ringer's Solution and resuspended to […] in modified Ringer's solution containing 10 mM calcium.
(§3) Compounds are dissolved to a concentration of 10 millimolar with DMSO. Compound plates are created by dispensing compounds into 384 well black wall clear bottom plates (Greiner 781091). Positive and negative controls are included on each plate. Typically, different amounts of each compound are tested ranging from 100 nanoMoles (20 micromolar final concentration) decreasing in half-log steps to 31 picoMoles (6 nanomolar final concentration). Each concentration is typically tested in triplicate.
(§4) 50 microliters of dye-loaded cells are dispensed into each well of the compound assay plate created above. The fluorescence in each well is then determined with an excitation wavelength of 480 nm and an emission wavelength of 540 nm using either a Molecular Devices SpectraMax multimode plate reader or a Hamamatsu FDSS/uCell plate imager.
(§5) The resulting fluorescence for each well is exported as an ascii file and loaded into our LIMS for analysis. The percent activity of each compound at each concentration is determined by comparison to the positive and negative control wells included in each plate.
(§6) EC50 values were calculated using a non-linear regression of Prism. In the table, “A” indicates an EC50 of less than 100 nM, “B” indicates an EC50 range from 100 nM to 500 nM; “C” indicates an EC50 range from 500 nM to 2 μM; and “D” indicates an EC50 greater than 2 μM.

TRPML3 = biological target: T1, TRPML3 (Homo sapiens, UniProt Q8TDD5); assay: Fluorescent TRPML3 assay (performed as for TRPML1, substituting the TRPML3 subtype); type: cell-based
T1 construct: expressed in transfected cells
T1 sequence (Q8TDD5 1-553): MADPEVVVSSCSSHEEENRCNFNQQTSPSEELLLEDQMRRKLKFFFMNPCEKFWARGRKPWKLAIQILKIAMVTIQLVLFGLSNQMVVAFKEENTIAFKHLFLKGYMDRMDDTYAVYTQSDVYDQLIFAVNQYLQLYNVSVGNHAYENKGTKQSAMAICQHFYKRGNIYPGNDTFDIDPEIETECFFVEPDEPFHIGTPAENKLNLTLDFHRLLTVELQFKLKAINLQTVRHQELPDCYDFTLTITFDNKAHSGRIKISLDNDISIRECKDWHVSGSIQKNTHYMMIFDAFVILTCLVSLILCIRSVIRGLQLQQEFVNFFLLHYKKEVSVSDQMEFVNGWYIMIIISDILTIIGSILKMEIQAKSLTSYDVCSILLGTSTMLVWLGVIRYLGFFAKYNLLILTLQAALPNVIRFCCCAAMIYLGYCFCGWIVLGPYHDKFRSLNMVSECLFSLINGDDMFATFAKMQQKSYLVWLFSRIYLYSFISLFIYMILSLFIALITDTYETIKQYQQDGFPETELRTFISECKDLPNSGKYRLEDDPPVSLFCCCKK
Method: as §1, §2, §3, §4, §5
TRPML2 and TRPML3 Assays Assays for TRPML2 and TRPML3 were performed as above for TRPML1, by substituting the appropriate TRPML2 or TRPML3 subtype for the TRPML1.
as §6

Sequence of TRPML1 (Q9GZU1 whole entry L15A/L16A/L577A/L578A, form open): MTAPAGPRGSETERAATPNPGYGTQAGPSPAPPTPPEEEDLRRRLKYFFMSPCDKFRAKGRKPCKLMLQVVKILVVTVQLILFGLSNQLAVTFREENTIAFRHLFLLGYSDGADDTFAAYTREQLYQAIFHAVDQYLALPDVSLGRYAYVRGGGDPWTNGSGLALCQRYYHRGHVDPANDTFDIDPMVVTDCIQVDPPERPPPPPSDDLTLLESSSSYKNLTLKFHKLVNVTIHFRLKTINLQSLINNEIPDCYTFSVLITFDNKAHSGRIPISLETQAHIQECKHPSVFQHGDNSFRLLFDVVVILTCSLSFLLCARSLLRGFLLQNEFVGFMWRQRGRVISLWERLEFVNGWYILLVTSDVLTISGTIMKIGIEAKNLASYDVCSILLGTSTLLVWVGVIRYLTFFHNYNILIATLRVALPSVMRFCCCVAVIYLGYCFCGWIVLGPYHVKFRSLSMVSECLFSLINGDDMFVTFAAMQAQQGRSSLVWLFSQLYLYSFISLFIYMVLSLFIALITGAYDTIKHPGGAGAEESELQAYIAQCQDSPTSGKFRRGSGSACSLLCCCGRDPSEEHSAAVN

| SMILES | pEC50 (TRPML1; fluorescent calcium assay) | pEC50 (TRPML3; fluorescent calcium assay) | pEC50 (TRPML1) | pEC50 (TRPML3) |
| --- | --- | --- | --- | --- |
| C[C@H]1CN(C(=O)OC(C)(C)C)CCN1c1ncnc2c1c(C1CC1)cn2C1CCCC(F)(F)C1 (stereo partly drawn) [Compound 382, tert-butyl (3S)-4-(5-cyclopropyl-7-(3,3-difluorocyclohexyl)-7H-pyrrolo[2,3-d]pyrimidin-4-yl)-3-methylpiperazine-1-carboxylate] | 5.70 to 6.30 | 5.70 to 6.30 | – | – |
| C[C@@H]1CN(C(=O)OC(C)(C)C)CCN1c1ncnc2c1c(C1CC1)cn2-c1cc(C#N)ccn1 [Compound 393, tert-butyl (R)-4-(7-(4-cyanopyridin-2-yl)-5-cyclopropyl-7H-pyrrolo [2,3-d]pyrimidin-4-yl)-3-methylpiperazine-1-carboxylate] | > 7.00 | > 7.00 | – | – |
| CCOC(=O)N1C[C@H](C)N(c2ncnc3c2c(-c2cnccn2)cn3-c2cccc(Cl)c2)C[C@H]1C [Compound 125, Ethyl (2R,5S)-4-(7-(3-chlorophenyl)-5-(pyrazin-2-yl)-7H-pyrrolo[2,3-d]pyrimidin-4-yl)-2,5-dimethylpiperazine-1-carboxylate] | 5.70 to 6.30 | 5.70 to 6.30 | – | – |
| CC(C)(OC(=O)N1CCN(c2ncnc3c2c(C2CC2)cn3-c2cc(C#N)ccn2)CC1)C(F)(F)F [Compound 385, 1,1,1-trifluoro-2-methylpropan-2-yl 4-(7-(4-cyanopyridin-2-yl)-5-cyclopropyl-7H-pyrrolo[2,3-d]pyrimidin-4-yl)piperazine-1-carboxylate] | 6.30 to 7.00 | 6.30 to 7.00 | – | – |
| CCOC(=O)N1CCN(c2ncnc3c2c(C2CC2)cn3-c2cncc(C)c2)[C@@H](C)C1 [Compound 153, ethyl (S)-4-(5-cyclopropyl-7-(5-methylpyridin-3-yl)-7H-pyrrolo[2,3-d]pyrimidin-4-yl)-3-methylpiperazine-1-carboxylate] | < 5.70 | < 5.70 | – | – |
| C[C@H]1CN(C(=O)OC(C)(C)C)CCN1c1ncnc2c1c(N1CCCC1)cn2C12CCC(CC1)CC2 [Compound 383, tert-butyl (S)-4-(7-(bicyclo[2.2.2]octan-1-yl)-5-(pyrrolidin-1-yl)-7H-pyrrolo[2,3-d]pyrimidin-4-yl)-3-methylpiperazine-1-carboxylate] | 6.30 to 7.00 | < 5.70 | – | – |
| CC(C)(C)OC(=O)N1CCN(c2ncnc3c2c(C2CC2)cn3-c2cc(F)cc(F)c2)C[C@@H]1C(F)F (single isomer, unassigned) [Compound 315] | 5.70 to 6.30 | 5.70 to 6.30 | – | – |
| CC(C)(C)OC(=O)N1CCN(c2ncnc3c2c(-c2ccccc2F)cn3-c2cc(C#N)ccn2)CC12CC2 [Compound 392, tert-butyl 7-(7-(4-cyanopyridin-2-yl)-5-(2-fluorophenyl)-7H-pyrrolo[2,3-d]pyrimidin-4-yl)-4,7-diazaspiro[2.5]octane-4-carboxylate] | 6.30 to 7.00 | > 7.00 | – | – |
| C[C@H]1CN(C(=O)OC(C)(C)C)CCN1c1ncnc2c1c(N1CCOCC1)cn2-c1cc(C#N)ccn1 [Compound 380, tert-butyl (S)-4-(7-(4-cyanopyridin-2-yl)-5-morpholino-7H-pyrrolo[2,3-d]pyrimidin-4-yl)-3-methylpiperazine-1-carboxylate] | 6.30 to 7.00 | 5.70 to 6.30 | – | – |
| Cc1nccnc1-c1cn(-c2cccc(C#N)c2)c2ncnc(N3CCN(C(=O)OC(C)(C)C)C[C@@H]3C)c12 [Compound 294, tert-butyl (S)-4-(7-(3-cyanophenyl)-5-(3-methylpyrazin-2-yl)-7H-pyrrolo[2,3-d]pyrimidin-4-yl)-3-methylpiperazine-1-carboxylate] | 5.70 to 6.30 | – | – | – |
| C[C@H]1CN(C(=O)OC(C)(C)C(F)(F)F)CCN1c1ncnc2c1c(N1CCCC1)cn2C1CCCCC1 [Compound 359, 1,1,1-trifluoro-2-methylpropan-2-yl (S)-4-(7-cyclohexyl-5-(pyrrolidin-1-yl)-7H-pyrrolo[2,3-d]pyrimidin-4-yl)-3-methylpiperazine-1-carboxylate] | 6.30 to 7.00 | – | – | – |
| COc1cccc(-n2cc(-c3nccnc3C)c3c(N4CCN(C(=O)OC(C)(C)C)C[C@@H]4C)ncnc32)c1 [Compound 293, tert-butyl (S)-4-(7-(3-methoxyphenyl)-5-(3-methylpyrazin-2-yl)-7H-pyrrolo[2,3-d]pyrimidin-4-yl)-3-methylpiperazine-1-carboxylate] | 5.70 to 6.30 | – | – | – |

Continued, values first:

| pEC50 (TRPML1; fluorescent calcium assay) | pEC50 (TRPML3; fluorescent calcium assay) | pEC50 (TRPML1) | pEC50 (TRPML3) | SMILES |
| --- | --- | --- | --- | --- |
| 5.70 to 6.30 | 6.30 to 7.00 | – | – | CC(C)(C)OC(=O)N1CC2(C1)CN(c1ncnc3c1c(C1CC1)cn3-c1cc(Cl)cc(Cl)c1)C2 [Compound 464, tert-butyl 6-(5-cyclopropyl-7-(3,5-dichlorophenyl)-7H-pyrrolo[2,3-d]pyrimidin-4-yl)-2,6-diazaspiro[3.3]heptane-2-carboxylate] |
| – | – | 6.30 to 7.00 | 6.30 to 7.00 | Cc1c(C(F)(F)F)c2c(N3C[C@@H](C)N(C(=O)OC(C)(C)C)C[C@@H]3C)ncnc2n1-c1cc(C#N)ccn1 [Compound 531, tert-butyl (2R,5S)-4-(7-(4-cyanopyridin-2-yl)-6-methyl-5-(trifluoromethyl)-7H-pyrrolo[2,3-d]pyrimidin-4-yl)-2,5-dimethylpiperazine-1-carboxylate] |
| – | – | > 7.00 | > 7.00 | C[C@@H]1CN(c2ncnc3c2c(C(F)(F)F)cn3-c2cc(C#N)ccn2)[C@@H](C)CN1C(=O)OC1CC1 [Compound 515, cyclopropyl (2R,5S)-4-(7-(4-cyanopyridin-2-yl)-5-(trifluoromethyl)-7H-pyrrolo[2,3-d]pyrimidin-4-yl)-2,5-dimethylpiperazine-1-carboxylate] |
| 5.70 to 6.30 | 5.70 to 6.30 | – | – | C[C@H]1CN(C(=O)OC(C)(C)C)CCN1c1ncnc2c1c(C1CCOCC1)cn2-c1cccc(F)c1 [Compound 470, tert-butyl (S)-4-(7-(3-fluorophenyl)-5-(tetrahydro-2H-pyran-4-yl)-7H-pyrrolo[2,3-d]pyrimidin-4-yl)-3-methylpiperazine-1-carboxylate] |
| – | – | 5.70 to 6.30 | 5.70 to 6.30 | C[C@@H]1CN(c2ncnc3c2c(C(F)F)cn3C2CCCC2)[C@@H](C)CN1C(=O)OC(C)(C)C [Compound 628, tert-butyl (2R,5S)-4-(7-cyclopentyl-5-(difluoromethyl)-7H-pyrrolo[2,3-d]pyrimidin-4-yl)-2,5-dimethylpiperazine-1-carboxylate] |
| – | – | 6.30 to 7.00 | 6.30 to 7.00 | C[C@@H]1CN(c2ncnc3c2c(C(F)F)cn3-c2cc(F)ccn2)[C@@H](C)CN1C(=O)OC1(C)CC1 [Compound 611, 1-methylcyclopropyl (2R,5S)-4-(5-(difluoromethyl)-7-(4-fluoropyridin-2-yl)-7H-pyrrolo[2,3-d]pyrimidin-4-yl)-2,5-dimethylpiperazine-1-carboxylate] |
| – | – | 5.70 to 6.30 | 5.70 to 6.30 | Cc1cn(-c2cncnc2)c2ncnc(N3CCN(C(=O)OC(C)(C)C)C[C@@H]3C)c12 [Compound 691, tert-butyl (S)-3-methyl-4-(5-methyl-7-(pyrimidin-5-yl)-7H-pyrrolo[2,3-d]pyrimidin-4-yl)piperazine-1-carboxylate] |
| 6.30 to 7.00 | > 7.00 | – | – | CC(C)(C)OC(=O)N1CCN(c2ncnc3c2c(C2CC2)cn3-c2cc(C#N)ccn2)CC12CC2 [Compound 396, tert-butyl 7-(7-(4-cyanopyridin-2-yl)-5-cyclopropyl-7H-pyrrolo[2,3-d]pyrimidin-4-yl)-4,7-diazaspiro[2.5]octane-4-carboxylate] |
